Test results from US10314819B2, “Solid state forms of Eluxadoline” (TEVA PHARMACEUTICALS INTERNATIONAL GMBH, priority 2015, dated 2019).

Key:
Assay type in all cases: physicochemical
[1] = Bulk density/tapped density, Hausner ratio and Carr index (Ph. Eur. 2.9.34. Method 1); conditions: PSD/μm 3/8/24
Protocol: Bulk density/tapped density and corresponding Hausner ratio and Carr index were determined according to Ph. Eur. 2.9.34. Method 1.

[2] = Polymorph stability on storage at various relative humidity (PXRD)
Protocol: Sample after being powdered in a mortar and pestle is applied directly on a silicon plate holder. The X-ray powder diffraction pattern was measured with Philips X'Pert PRO X-ray powder diffractometer, equipped with Cu irradiation source=1.54184 Å(Ångström), X'Celerator (2.022° 2θ) detector. Scanning parameters: angle range: 3-40 deg., step size 0.0167, time per step 37 s, continuous scan.
(§1) The obtained amorphous form was stored at various conditions, and the PXRD was analyzed after 3 and 7 days:
The obtained pure amorphous form was stored at various conditions, and the PXRD was analyzed after 3 and 7 days:
(§2) The obtained form alpha was stored at various conditions, and the PXRD was analyzed after 3 and 8 days:
(§3) The obtained amorphous form was stored at various conditions of relative humidity, and the PXRD was obtained after 1M (Table 4):
(§4) The obtained amorphous form was stored at various conditions, and the PXRD was obtained after 2M (Table 5):
(§5) XRPD pattern is shown in FIG. 16; SEM image is shown in FIG. 17; DSC thermogram is shown in FIG. 21 and TGA thermogram is shown in FIG. 22. The obtained form alpha was stored at various conditions, and the PXRD was obtained after 8, 14, and 21 days (Table 6): […]

[3] = Texture analysis / density at 0.2 MPa; conditions: 200 mg sample compressed in steel mould
Protocol: A simple and low sample consuming method for evaluation of the packing density of powders were obtained as compression profiles under low pressures using a die and a flat-faced punch fitted on a TA-XTplus Texture analyser (Stable Micro Systems Ltd., Godalming, UK). The small amount of 200 mg of sample is compressed in a steel mould (with the rate of displacement 0.03 mm/s). Also, a cyclic procedure (similar to tapping) was performed at maximal compressive displacement 0.5 mm, then retracting, relaxation for 15 s and then repeated compressive steps (altogether up to 20 steps).

[4] = Specific surface area (SSA), BET nitrogen
Protocol: Specific Surface Area (SSA) measurements (Bet Nitrogen) were determined using a Micromeritics ASAP 2000, specific surface area analyzer. Samples were subjected to the BET nitrogen adsorption analysis to determine the specific surface of the samples.
Sample tube: 10 cc bulb with ½″ stem
Sample mass: Approximately ½ full cell
Sample preparation: Degassing with nitrogen
Outgassing conditions: 40° C. (30 min)
Isothermal collection point: 20 adsorption points, in the range 0-1 P/P0
Isothermal data analysis range: 5 point BET in the range 0.05-0.20 P/P0
Equilibration interval: 5 s
Equilibration time out: 600 s

[5] = Dissolution in 50 mM phosphate buffer pH = 7.4 at 37° C.; conditions: 50 mM phosphate buffer pH = 7.4, 37° C.
Protocol: Samples were prepared and analysed in duplicate. About 20 mg of each sample were weighed into 500 ml Erlenmeyer flask, 200 ml of 50 mM phosphate buffer pH=7.4, previously heated to 37° C. were added and flasks were shaken at 110 rpm for 60 minutes at 37±0.2° C. in an incubator shaker. 3 ml aliquots were taken at 5, 10, 20, 30, 45 and 60 min, filtered through 0.45 μm Chromafil Xtra RC 45/25 syringe filter and analysed by UV/VIS spectrometer (absorbance at 203 nm).
The measurement was performed using the following instruments: • pH/Ion meter PHM 240, MeterLab, Radiometer Analytical • Incubator shaker Innova 4080, New Brunswick Scientific, 19 mm diameter circular orbit • UV/VIS spectrometer Varian Cary 50 Bio, 1 mm quartz cell Results of Eluxadoline samples dissolution in 50 mM phosphate buffer pH=7.4 are summarized in Table 8 below: […]

[6] = % weight loss / water content (TGA, KF) after storage at various relative humidity; conditions: for % weight loss/water cont. - after 21 days, TGA: TGA up to 121° C.
Protocol: as §1, §2, §3, §4, §5

## COc1ccc(CN(C(=O)[C@@H](N)Cc2c(C)cc(C(N)=O)cc2C)[C@@H](C)c2nc(-c3ccccc3)c[nH]2)cc1C(=O)O [Example 22]
[1]
  Bulk density: 0.33 mg/mm^3
  Carr's index: 14.93%
  Flow character (Carr's index): good
  Hausner ratio: 1.18
  Tapped density: 0.39 mg/mm^3
[2]; 0% RH, 21 days
  PXRD results - after 21 days: alpha
[2]; 20% RH, 21 days
  PXRD results - after 21 days: alpha
[2]; 40% RH, 21 days
  PXRD results - after 21 days: alpha
[2]; 60% RH, 21 days
  PXRD results - after 21 days: alpha
[2]; 80% RH, 21 days
  PXRD results - after 21 days: alpha
[2]; 100% RH, 21 days
  PXRD results - after 21 days: alpha
[2]; As is
  PXRD results - after 21 days: alpha
[3]
  Density at 0.2 MPa: 0.4707 mg/mm^3
[4]
  SSA: 9.63 m^2/g
[5]; 5 min
  % dissolved: 83.62%
[5]; 10 min
  % dissolved: 91.02%
[5]; 20 min
  % dissolved: 95.48%
[5]; 30 min
  % dissolved: 95.87%
[5]; 45 min
  % dissolved: 96.56%
[5]; 60 min
  % dissolved: 96.64%
[6]; 0% RH, 21 days
  % weight loss/water cont. - after 21 days, TGA: TGA-0.96%
[6]; 20% RH, 21 days
  % weight loss/water cont. - after 21 days, TGA: TGA-1.26%
[6]; 40% RH, 21 days
  % weight loss/water cont. - after 21 days, TGA: TGA-1.46%
[6]; 60% RH, 21 days
  % weight loss/water cont. - after 21 days, TGA: TGA-6.30%
[6]; 80% RH, 21 days
  % weight loss/water cont. - after 21 days, TGA: TGA-7.00%
[6]; 100% RH, 21 days
  % weight loss/water cont. - after 21 days, TGA: TGA-9.01%
[6]; As is
  % weight loss/water cont. - after 21 days, KF: 1.12%
  % weight loss/water cont. - after 21 days, TGA: 0.95%
